Laboratory results: patent publication US11969397B2, “Composition for preventing and treating transplant rejection or transplant rejection diseases, comprising novel compound and calcineurin inhibitor” (THE CATHOLIC UNIVERSITY OF KOREA INDUSTRY-ACADEMIC …, priority 2018, dated 2024)

Assays:
pathogenic Th17 cells = assay: Inhibition of pathogenic Th17 cells / IL-17 in in vitro allogenic model (mouse cells); format: cell-based; conditions: 4 days, anti-CD3 0.1 μg/ml, SD282 50, 250, 500 μM, FK506 1, 5 nM, combination FK506 1, 5 nM + SD282 250 μM
Experimental: (§1) CD4+ T cells derived from a normal recipient (Balb/c, responder) (2×10^5 cells) were injected into each well of a 96-well round bottom plate, in vitro. Thereafter, for syngenic transplantation, normal recipient-derived T cell-removed splenocytes (2×10^5 cells), which had been irradiated with radiation, were added to each of the wells, followed by culturing under mixing. For allogenic transplantation, donor (C57BL/6, stimulator)-derived T cell-removed splenocytes were added to each of the wells, followed by culturing under mixing.
The T cell response regulates the activity of Th17 (T helper 17 cell)/IL-17 (Interleukin 17) and IL-17 is classified as an inflammatory cytokine. […] We also evaluated inhibitory activity against inflammatory cytokines according to the treatments with SD282 and FK506 alone or in combination. The untreated syngenic group and the untreated allogenic group of Example 1-1 were used as controls. The allogenic models were treated with 50, 250 and 500 μM of SD282 alone or 1 and 5 nM of FK506 alone. And, FK506 (1 and 5 nM) and SD282 (250 μM) were treated in combination, respectively. After the treatments, each group was cultured for 4 days and then stimulated with anti-CD3 (0.1 μg/ml). The inhibitory efficacy against IL-17+CD4+ T cells and IL-17 was evaluated by analyzing the cultured Th17 cells according to the ELISA method; and the proliferation of Fox3+ Treg cells was evaluated through the analysis of Treg cells.

allogenic T cells = assay: T cell proliferation in in vitro allogenic transplantation model (mouse cells); format: cell-based; conditions: cultured 4 days; for T cell proliferation (3H-thymidine incorporation, FIG. 1): SD282 alone 250 μM or more, FK506 alone 1 and 5 nM, combination FK506 1 and 5 nM + SD282 250 μM; for T cell proliferation (flow cytometry, FIG. 2): SD282 alone, FK506 alone or combination
Experimental: as §1
In order to evaluate T cell proliferations according to the treatment with SD282 alone, FK506 alone or in combination thereof, the untreated syngenic group and the untreated allogenic group of Example 1-1 were used as controls. The allogenic model was treated with 50, 250 and 500 μM of SD282 alone or 1 and 5 nM of FK506 alone. And, FK506 (1 and 5 nM) and SD282 (250 μM) were treated in combination, respectively. After the treatments, each group was cultured for 4 days and then alloresponses were evaluated by observing the T cell proliferations of the cultured cells, according to the 3H-thymidine incorporation method, the CFSE assay method, or the flow cytometry method.
In addition, in order to evaluate the synergistic effect according to the treatment of SD282 and FK506 in combination, the Combination Index (CI) value (drug treatment) was calculated. The CI value was obtained by the following equation. A value of 1 or less means that there is a synergistic effect between the combination of two drugs, and a value of 1 or more means that there is an antagonistic effect between the combination of two drugs.

Foxp3 Treg cells = assay: Treg activity under Th17 differentiation condition in in vitro allogenic model (mouse cells); format: cell-based; conditions: 4 days, SD282 20 and 500 μM, FK506 1 and 5 nM, combination FK506 1, 5 nM + SD282 250 μM
Experimental: as §1
The allogenic models of Example 1-1 were treated with 20 and 500 μM of SD282 alone or 1 and 5 nM of FK506 alone. And, FK506 (1 and 5 nM) and SD282 (250 μM) were treated in combination, respectively. The isolated T cells were cultured for 4 days under the condition of Th17 cell differentiation so as to induce the differentiation to Th17 cells.

[1] = test system: allogenic T cells (normal human PBMCs); assay: T cell proliferation in normal human PBMCs (MLR, CFSE); format: cell-based; design: T cell proliferation (FIG. 13a): dose or concentration left out as unconfirmed; conditions: for proliferation of allogenic T cells (FIG. 13b): 4 days, FK506 1 and 5 nM, SD282 alone, combination FK506 1, 5 nM + SD282 250 μM
Experimental: In order to evaluate the T cell proliferations according to the treatment with SD282 alone, FK506 alone, or in combination thereof in normal human PBMCs (peripheral blood mononuclear cells, PBMCs), mixed leukocyte reaction (MLR) and CFSE (carboxyfluorescein succinimidyl ester) staining were performed. An untreated syngenic group and an untreated allogenic group were used as controls. […] And, FK506 (1 and 5 nM) and SD282 (250 μM) were treated in combination, respectively. After the treatments, each group was cultured for 4 days and then alloresponses were evaluated by observing the T cell proliferations of the cultured cells, according to the 3H-thymidine incorporation method or the flow cytometry method.

[2] = test system: PBMCs of a liver-transplanted patient; assay: Microarray / KEGG pathway and gene regulation in PBMCs of a liver-transplanted patient; format: cell-based, human; conditions: CD3 stimulation, 48 hours, SD282 250 μM
Experimental: In order to investigate changes in the signal factors related to immune cell modulation according to drug treatments in the peripheral blood cells (PBMCs) of a liver-transplanted patient, the PBMCs were treated with 250 μM of SD282 alone, 5 nM of FK506 alone, and the combination thereof, under the condition of TCR stimulation (under the CD3 stimulation). After culturing for 48 hours, the microarray analyses thereof were carried out by Macrogen, Inc.

IL-17, IFN-γ and TNF-α = assay: Inflammatory cytokines in normal human PBMCs under allo-response (ELISA); format: cell-based; conditions: allogenic, 4 days, compared to the group treated with FK506 alone
Experimental: In order to evaluate the inhibitions against the activities of inflammatory cytokines according to the treatment with SD282 alone, FK506 alone, or in combination thereof in normal human peripheral blood cells (PBMCs), an untreated syngenic group and an untreated allogenic group were used as controls. Allogenic models were treated with 5, 250 and 500 μM of SD282 alone or 1 and 5 nM of FK506 alone. And, 1 and 5 nM of FK506 and 250 μM SD282 were treated in combination, respectively. After the treatments, each group was cultured for 4 days and then the inhibitory effects against IL-17, IFN-γ and TNF-α in the cultured cells was evaluated according to the ELISA method, so as to evaluate alloresponses.

| Compound | IL-17+CD4+ T cells (%) / proliferation of pathogenic Th17 cells (pathogenic Th17 cells) | activity of the inflammatory cytokine IL-17 (ELISA) (pathogenic Th17 cells) | IL-17+CD4+ T cells (%) / proliferation of pathogenic Th17 cells (pathogenic Th17 cells; listed as Fk506) | activity of the inflammatory cytokine IL-17 (ELISA) (pathogenic Th17 cells; listed as Fk506) | T cell proliferation (3H-thymidine incorporation, FIG. 1) (allogenic T cells) | T cell proliferation (flow cytometry, FIG. 2) (allogenic T cells) | proliferation of Treg cells (Foxp3, flow cytometry) (Foxp3 Treg cells) | proliferation of Treg cells (Foxp3, flow cytometry) (Foxp3 Treg cells; listed as Fk506) | proliferation of allogenic T cells (FIG. 13b) [1] | various pathways increased in a liver-transplanted patient (KEGG) [2] | T cell proliferation (FIG. 13a) ([1]; 4 days, or more of SD282 alone, compared to control group) | activity of IFN-γ (ELISA) (IL-17, IFN-γ and TNF-α) | activity of IL-17 (ELISA) (IL-17, IFN-γ and TNF-α) | activity of TNF-α (ELISA) (IL-17, IFN-γ and TNF-α) |
| --- | --- | --- | --- | --- | --- | --- | --- | --- | --- | --- | --- | --- | --- | --- |
| C=CC[C@@H]1/C=C(\C)C[C@H](C)C[C@H](OC)[C@H]2O[C@@](O)(C(=O)C(=O)N3CCCC[C@H]3C(=O)O[C@H](/C(C)=C/[C@@H]3CC[C@@H](O)[C@H](OC)C3)[C@H](C)[C@@H](O)CC1=O)[C@H](C)C[C@@H]2OC [FK506, tacrolimus] | did not effectively inhibit | did not effectively inhibit | inhibited | inhibited | not effective | inhibited | did not increase | significantly increased | not effective |  |  |  |  |  |
| CCN(C(=N)NC(=N)N)c1ccc(F)cc1 [SD282] | inhibited | inhibited |  |  | significantly inhibited | inhibited | significantly increased |  | significantly inhibited | inhibited | inhibited | more significantly inhibited | more significantly inhibited | more significantly inhibited |
